Measured values from US5492821A, “Stabilized polyacrylic saccharide protein conjugates” (Cargill, Inc., priority 1991, dated 1996).
Numbered stars: 1 amine (or outer) side, 2 acyl side, 3 side chain; on linkers, the order of the positions; unused ones are H or OH. Peptide text beside a SMILES is read from it. * marks the point of attachment. pNA = O=[N+]([O-])c1ccc(N*)cc1; Suc = O=C(CCC(=O)[*:2])[*:1]

Columns and labels:
Assay type in all cases: biochemical
Settings in all cases: 0.05M sodium phosphate buffer at pH 8 containing 10% methanol
[1] = tested on: CPC-trypsin (poly(2-N-methacrylamido-2-deoxy-D-glucose)-trypsin conjugate); assay: Km and kcat of enzyme-polymer conjugate, Table 1
Protocol: A protein polymer conjugate of poly(2-N-methacrylamido-2-deoxy-D-glucose) and trypsin was prepared by the reductive amination procedure as shown below: [drawing 23] To 20 mL of a 0.05M sodium borate solution at pH 8 was added 148 mg (3×10^-8 mole) of poly(2-N-methacrylamido-2-deoxy-D-glucose) with 30 mg (1.2×10^-6 mole) of trypsin and 10 mg ([…]) of purified sodium cyanoborohydride. The solution was placed in a shaking water bath at 60 oscillations/min at 35° C. for 48 hours. The progress of the reaction was followed by gel filtration chromatography using 0.05M sodium borate as the eluent on Sephacryl S-200 with a flow rate of 1.5 mL/min. Dialysis of the solution using Spectra Por CE 100K MWCO membrane against 2×250 mL of 0.05M sodium borate at pH 8 for 14 hours gave a 42% yield of active stabilized trypsin-polymer conjugate.
(§1) The yield of the active enzyme was determined by comparison of the relative activity of the native trypsin and the trypsin-polymer conjugate for N-succinyl-Ala-Ala-Pro-Phe p-nitroanilide as the substrate in 0.05M sodium phosphate buffer at pH 8 containing 10% methanol.

α-chymotrypsin (native) = α-chymotrypsin (native) (Bos taurus, UniProt P00766); assay: Km and kcat of enzyme, Table 1
Protocol: as §1
The procedure of EXAMPLE 8 (a) (i) was repeated in every essential detail except that α-chymotrypsin was used instead of trypsin.

trypsin (native) = assay: Km and kcat of enzyme, Table 1
Protocol: as §1

Which results are given for `C[C@H](NC(=O)CCC(=O)O)C(=O)N[C@@H](C)C(=O)N1CCC[C@H]1C(=O)N[C@@H](Cc1ccccc1)C(=O)Nc1ccc([N+](=O)[O-])cc1` [N-succinyl-Ala-Ala-Pro-Phe p-nitroanilide] (Suc-AAPF-pNA)?
Km [1]: 890 µM; kcat [1]: 1.2 s⁻¹; Km (α-chymotrypsin (native)): 40 µM; kcat (α-chymotrypsin (native)): 33 s⁻¹; Km (trypsin (native)): 760 µM; kcat (trypsin (native)): 0.9 s⁻¹
